According to ChEMBL document CHEMBL3137667, “[Drug-induced liver injury; fourteenth updated edition of the bibliographic database of liver injuries and related drugs]” (Gastroenterol Clin Biol, 2004):

Tests used:
[1] = Highest frequency of moderate liver toxicity observed during clinical trials, expressed as a percentage. [column '% BIOL' in source]; conditions: human
[2] = Highest frequency of acute liver toxicity observed during clinical trials, expressed as a percentage. [column '% AIGUE' in source]; conditions: human
[3] = Presence of at least one case with successful reintroduction. [column 'REINT' in source]; conditions: human
[4] = Times to onset, minimal and maximal, observed in the indexed observations. [column 'DELAI' in source]; conditions: human
[5] = human, serum
[6] = human, serum; remark: listed apart in the source
[7] = human
[8] = human; remark: listed apart in the source
[9] = human; remark: listed apart in the source
[10] = human, serum, 4383 h
[11] = human; remark: listed apart in the source
[12] = human; remark: listed apart in the source
[13] = human; remark: listed apart in the source
[14] = human; remark: listed apart in the source
[15] = human; remark: listed apart in the source
[16] = human; remark: listed apart in the source
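For Hepatotoxicity (association with vascular disease) in this document: count of indexed literature references reporting vascular liver injury in humans, e.g. peliosis hepatitis, hepatic veno-occlusive disease or Budd-Chiari syndrome.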
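For Hepatotoxicity (benign tumour) in this document: value is a count of indexed literature references citing a benign tumour confirmed by histopathology.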
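For Hepatotoxicity (choleostasis) in this document: human cholestatic liver injury, shown by histopathology or by peak ALT or AST elevation over alkaline phosphatase ratio below 2, value counts indexed literature reports.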
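For Hepatotoxicity (chronic liver disease) in this document: chronic liver injury confirmed by histopathology or persistently raised serum aminotransferase activity beyond 6 months, value given as the count of indexed literature references.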
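For Hepatotoxicity (cirrhosis) in this document: value is a count of indexed literature references reporting cirrhosis confirmed by histopathology.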
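For Hepatotoxicity (cytolytic) in this document: human cytolytic liver injury, shown by histopathology or by a ratio above 5 of peak ALT or AST elevation to alkaline phosphatase elevation, value counts indexed references.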
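For Hepatotoxicity (granulomatous hepatitis) in this document: value is a count of indexed literature references reporting granulomatous liver disease confirmed by histopathology.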
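For Hepatotoxicity (malignant tumour) in this document: malignant tumour confirmed by histopathology, value gives the count of indexed literature references reporting it.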
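For Hepatotoxicity (severe hepatitis) in this document: human clinical data: severe hepatitis, meaning potentially life-threatening liver failure or clinically observed cases, the value counts how many indexed literature references report it.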
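For Hepatotoxicity (steatosis) in this document: steatosis confirmed by histopathology, value is the count of indexed references.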

SMILES	Hepatotoxicity (moderate) [1]	Hepatotoxicity (acute) [2]	Hepatotoxicity (successful reintroduction) [3]	Hepatotoxicity (time to onset) [4]	Hepatotoxicity (moderate) [5]	Hepatotoxicity (acute) [6]	Hepatotoxicity (cytolytic) [7]	Hepatotoxicity (choleostasis) [8]	Hepatotoxicity (severe hepatitis) [9]	Hepatotoxicity (chronic liver disease) [10]	Hepatotoxicity (cirrhosis) [11]	Hepatotoxicity (granulomatous hepatitis) [12]	Hepatotoxicity (association with vascular disease) [13]	Hepatotoxicity (steatosis) [14]	Hepatotoxicity (malignant tumour) [15]	Hepatotoxicity (benign tumour) [16]
[Li] [LITHIUM]	0%	0%	yes	2 days - 2 months	4	0	0	0	0	1	0	0	0	0	0	0
CC[C@]1(O)CC[C@H]2[C@@H]3CCC4=CC(=O)CC[C@@H]4[C@H]3CC[C@@]21C [NORETHANDROLONE]	24%	0%	yes	2 weeks - 4.5 years	3	11	0	6	2	0	0	0	3	0	1	2
CN(CCCN1c2ccccc2CCc2ccccc21)CC(=O)c1ccc(Cl)cc1 [LOFEPRAMINE]	46.5%	2.3%	yes	1 week - 12 weeks	7	3	2	3	1	0	0	0	0	0	0	0
Cc1ncsc1CCCl [CLOMETHIAZOLE]	0%	0%	yes	3 days - 40 days	1	3	3	1	2	0	0	0	0	0	0	0
C[C@H]1C[C@@H]2[C@H]([C@@H](O)C[C@@]3(C)[C@H]2CC[C@]3(O)C(=O)CO)[C@@]2(C)C=CC(=O)C=C12 [METHYLPREDNISOLONE]	0%	0%	yes	40 days	0	2	2	0	0	0	0	0	0	2	0	0
CCC1(c2ccc(N)cc2)CCC(=O)NC1=O (stereo not given) [AMINOGLUTETHIMIDE]	67%	0%	yes	1 day - 10 weeks	4	4	2	3	0	0	0	0	0	0	0	0
Cc1c(Cl)cccc1Nc1ccccc1C(=O)O [TOLFENAMIC ACID]	0%	0%	yes	6 months	0	2	1	0	0	0	0	0	0	0	0	0
O=C(O)COC(=O)Cc1ccccc1Nc1c(Cl)cccc1Cl [ACECLOFENAC]	3.3%	0%	yes	1 week - 3 weeks	5	3	2	0	0	0	0	0	0	0	0	0
COC(=O)C(c1ccccc1)C1CCCCN1 (stereo not given) [METHYLPHENIDATE]	0%	0%	yes	2 days - 2 months	1	4	3	0	2	0	0	0	0	0	0	0
CC(C(=O)O)c1ccc(-c2ccccc2)c(F)c1 (stereo not given) [FLURBIPROFEN]	8.1%	0%	yes	1 day - 2 months	4	3	2	1	0	0	0	0	0	0	0	0
